Assays:
[1] = tested on: c-Fos protein expression in the paraventricular nucleus (PVN); assay: HPA axis activation: c-Fos labeling in the PVN; format: in vivo, mouse
[2] = tested on: circulating corticosterone (CORT); assay: HPA axis activation: circulating CORT measurements; settings: cotreatment 1 mg kg^−1 i.p. with LEI-401 30 mg kg^−1 i.p.; P = 0.0027

| SMILES | c-Fos protein expression in PVN ([1]; C57BL/6J mice, 3 mg kg^−1 i.p. single dose, 105 min before perfusion, P = 0.011) | effect on LEI-401-induced c-Fos protein expression in PVN ([1]; cotreatment 1 mg kg^−1 i.p. with LEI-401 30 mg kg^−1 i.p., P=0.016) | plasma CORT levels in LEI-401-treated mice on cotreatment [2] |
| --- | --- | --- | --- |
| Cc1c(C(=O)NN2CCCCC2)nn(-c2ccc(Cl)cc2Cl)c1-c1ccc(I)cc1 [AM251] | elevated c-Fos protein expression | – | – |
| NC(=O)c1cccc(-c2cccc(OC(=O)NC3CCCCC3)c2)c1 [URB597] | – | reversed by cotreatment | not when cotreated with a FAAH inhibitor |
